Measurements from patent publication EP2096113A1, “9-substituted camptothecin derivatives as antitumor compounds” (SIGMA-TAU Industrie Farmaceutiche Riunite S.p.A., priority 2008, dated 2009).

Test system: NCI-H460 non-microcytoma lung cancer cells
Assay: Cytotoxic activity on NCI-H460 cells (sulforodamine B test)
Type: cell-based
Conditions: product concentration that inhibits cell survival by 50%; 2 hours incubation with products, then another 72 hours in drug-free medium; optical density at 540 nm; read-out: IC50 (µM) H-460
Protocol: NCI-H460 non-microcytoma lung cancer cells were kept in RPMI 1640 culture medium containing 10% FCS and 1% glutamine. The cytotoxicity test to analyse the activity of the molecules was performed as follows. The cells were seeded in a volume of 250 µl in 96-well plates and incubated for 2 hours at 37°C with scalar concentrations of the products in a humidified atmosphere containing 5% CO2. At the end of the incubation, the molecules were removed by overturning the plates and adding sterile buffered saline solution (PBS) three times. The RPMI 1640 culture medium containing 10% FCS (200 µl) was added to the wells and the plates were incubated for another 72 hours. At the end of the incubation, the plates were overturned again and dried on paper, before adding 200 µl of PBS and 50 µl of 80% TCA. The plates were incubated again in ice for at least 1 hour. The TCA was removed by overturning the plates and the plates were first dried on paper and then washed three times by immersion in distilled water and overturning. The plates were dried first on paper and then in a thermostatically regulated incubator at 60°C for 10 min. 200 µl of 0.4% sulforodamine B in 1% acetic acid were added to all wells. The plates were incubated at room temperature for another 30 min. The sulforodamine B was removed by overturning, the plates were washed by immersion in 1% acetic acid three times and then dried first on blotting paper and then in the thermostat at 60°C for 10 min. Lastly, 200 µl of Tris base 10 mM were added to all wells and the plates were subjected to stirring for at least 20 min. The optical density was measured with a Multiskan spectrophotometer at 540 nm. Incubation with the products was capable of inhibiting proliferation in a concentration-dependent manner. Table 1 presents the IC50 values (product concentration that inhibits cell survival by 50%]. IC50 values for topotecan have also been reported for comparison purposes (Dallavalle S. et al., J. Med. Chem., 44, 3264-74, 2001). Table 1.
For `CC[C@@]1(O)C(=O)OCc2c1cc1n(c2=O)Cc2cc3c(C=NOC(C)(C)C)c(OC)ccc3nc2-1` [10-OCH3-CPT-9-CH=NOC(CH3)3, 10-methoxy-9-tert-butoxyiminomethylcamptothecin], the IC50 was 0.31 µM. Work on `CC[C@@]1(O)C(=O)OCc2c1cc1n(c2=O)Cc2cc3c(C#N)c(OC)ccc3nc2-1` [10-OCH3-CPT-9-CN, 10-Methoxy-9-cyanocamptothecin] yielded an IC50 of 0.27 µM. Work on `CC[C@@]1(O)C(=O)OCc2c1cc1n(c2=O)Cc2cc3c(C=NOC(C)(C)C)c(O)ccc3nc2-1` [10-OH-CPT-9-CH=NOC(CH3)3, 10-hydroxy-9-tert-butoxyiminomethylcamptothecin] yielded an IC50 of 0.35 µM. In the case of `CC[C@@]1(O)C(=O)OCc2c1cc1n(c2=O)Cc2cc3c(C=NOC(C)(C)C)cccc3nc2-1` [CPT-9-CH=NOC(CH3)3, 9-tert-Butoxyiminomethylcamptothecin], the IC50 is reported as 0.067 µM. Molecule `CC[C@@]1(O)C(=O)OCc2c1cc1n(c2=O)Cc2cc3c(C=NOCCN)cccc3nc2-1` [CPT-9-CH=NOCH2CH2NH2, 9-(2-Aminoethoxy)iminomethylcamptothecin] has an IC50 of 2.53 µM.

Test system: NCI-H460 non-microcytoma lung cancer cells
Assay: not given
Conditions: topotecan value reported for comparison, from Dallavalle S. et al., J. Med. Chem., 44, 3264-74, 2001; read-out: IC50 (µM) H-460; cited from earlier work
For `CC[C@@]1(O)C(=O)OCc2c1cc1n(c2=O)Cc2cc3c(CN(C)C)c(O)ccc3nc2-1` [topotecan, 10-hydroxy-9-dimethylaminomethylcamptothecin], the IC50 is listed as 1.38 µM.
